{"source": "patent US20160081336A1", "about": "“MEDIUM WITH A PLANT NON-METABOLIZABLE SUGAR FOR IMPROVING SEED GERMINATION” (WEYERHAEUSER NR COMPANY, priority 2014, published 2016)", "key": {"[1]": {"assay": "Study testing increased arginine in gametophyte medium", "conditions": "in vivo", "source_text": "Aside from the signaling evidence from the literature, the effect of isomaltulose is not thought to be simply from additional osmoticant because higher osmolality medium would drive the water potential gradient further in the direction of the gametophyte, not toward the embryo."}, "[2]": {"system": "embryos dissected from natural loblolly pine seed", "assay": "Germination of loblolly pine embryos in manufactured seed, sucrose/isomaltulose gametophyte media (Example 2)", "assay_type": "in vivo", "conditions": "relative to 20 sucrose", "quoted_text": "Normal (germination score): Fully extracted out of seed with no malformation (epicotyl optional for fully extracted). OR partial germinant with epicotyl out of cavity and all organs—No Malformations present. Root length of at least 3.0 mm.\nPartial Normal (germination score): Not fully emerged, partial germinant with no epicotyl and no malformations. Root length of at least 3.0 mm.\nNot normal (germination score): Malformed partial germinants, lacking organs, roots less than 3 mm, any upside down or twisted germinant, or germinated and died as evidenced by lid penetration but no germinant present.\nManufactured seeds were prepared with KE 64 agar nutritive medium, as shown below in Table 1, with sucrose (50 g/L), agar (18 g/L to 26 g/L), nutrient-loaded charcoal (60 g/L) and Pluronic F68 (10 g/L).\nThe germination rate may be measured and the normalcy of the germinants may also be assessed. A “normal germinant” or “normalcy” denotes the presence of all expected parts of a plant at time of evaluation. In the case of gymnosperms, normalcy is characterized by the radicle having a length greater than 3 mm and no visibly discernable malformations compared to the appearance of embryos germinated from natural seed. “Not normal” means tissue on at least one organ is swollen, and the root and cotyledons are dead. […]"}, "[3]": {"system": "alkaline and acid invertases", "conditions": "cut potato tubers; cited from earlier work"}, "developing embryo": {"system": "developing embryo", "assay": "Earlier sucrose level study in manufactured seed (FIG. 2, 3)", "assay_type": "in vivo", "source_text": "Higher water potential with relation to lower sucrose levels (solute concentration) was previously purported to increase flooding in gametophyte seed cavities. […] Because of the flooding problem, this study could have selected for those treatments that had the most rapid lid penetration, which would allow embryos to escape the flooded seed environment."}, "embryos": {"system": "embryos", "assay": "Lower sucrose concentrations study (15, 25, 35 and 50 g/l; FIG. 4-6)", "assay_type": "in vivo", "source_text": "Organ lengths were also a factor with relation to sucrose concentrations. It was hypothesized that lower sucrose concentrations would affect root lengths and indeed the lower sucrose treatments produced shorter root lengths as compared to the highest group 50 g/l sucrose (FIG. 4). […] After observing sufficient lid penetration, seed were transferred from boxes to sterile sand."}}, "data": [{"smiles": "N=C(N)NCCC[C@H](N)C(=O)O", "note": "[arginine]", "values": [{"measurement": "performance with increased arginine", "setting": "[1]", "value": "reduced performance at higher levels"}]}, {"smiles": "O=C(CO)[C@@H](O)[C@H](O)[C@H](O)CO[C@H]1O[C@H](CO)[C@@H](O)[C@H](O)[C@H]1O", "note": "[isomaltulose, 6-O-α-d-glucopyranosyl-D-fructose]", "values": [{"measurement": "lateral roots", "setting": "[2]", "value": "significantly improved lateral root presence"}, {"measurement": "isomaltulose concentration at peak acid invertase activity", "setting": "[3]", "value": 20, "unit": "mM"}, {"measurement": "isomaltulose concentration at peak alkaline invertase activity", "setting": "[3]", "value": 50, "unit": "mM"}]}, {"smiles": "OC[C@H]1O[C@@](CO)(O[C@H]2O[C@H](CO)[C@@H](O)[C@H](O)[C@H]2O)[C@@H](O)[C@@H]1O", "note": "[sucrose]", "values": [{"measurement": "organ lengths", "setting": "developing embryo; FIG. 2", "value": "increased with sucrose at 50 g/l and greater"}, {"measurement": "normalcy", "setting": "developing embryo; FIG. 3", "value": "decreased with increasing sucrose concentration"}, {"measurement": "root length", "setting": "embryos; FIG. 4", "value": "increased root length with relation to rising sucrose levels"}, {"measurement": "normalcy", "setting": "embryos; after germination in sand, FIG. 6", "value": "normalcy increasing with higher sucrose concentrations"}, {"measurement": "embryo activity", "setting": "embryos; day 5, FIG. 5", "value": "Lower concentrations of sucrose gave the highest yield of embryo activity"}]}]}
